Laboratory results published in patent US6426080B1, “Cosmetic preparation of active substances with high protection factor against free radicals” (Coty, B.V., priority 1998, dated 2002).

What was measured:
[1] = standard antioxidants, known parameter; cited from earlier work
[2] = activity against free radicals compared with SOD; format: biochemical
Excerpt: The Quebracho bark extract according to the invention or its hydrolysis product has a very high portion of proantho-cyanidines representing condensed tannins. […] The activity against free radicals was compared with that of SOD and found to be 42% for a 1 percent by weight solution of the extract (SOD 4%), 83% for a 2.5% by weight solution (SOD 15%)and 100% for a 5% by weight solution (SOD 38%). Preferably the extract (a) contains at least 95 percent by weight of proanthocyanidine oligomers and up to 5 percent by weight of gallic acid, in particular at least 99 percent by weight of proanthocyanidine oligomers and up to 1 percent by weight of gallic acid.

Compound	radical protection factor (RPF) [1]	activity against free radicals ([2]; 1 percent by weight solution)	activity against free radicals ([2]; 2.5% by weight solution)	activity against free radicals ([2]; 5% by weight solution)
Cc1c(C)c2c(c(C)c1O)CCC(C)(CCCC(C)CCCC(C)CCCC(C)C)O2 (racemic) [DL-α-tocopherol]	41200 ×10^14 radicals/mg	–	–	–
CC(=O)Oc1c(C)c(C)c2c(c1C)CCC(C)(CCC[C@H](C)CCC[C@H](C)CCCC(C)C)O2 (stereo partly shown) [a-tocopherol acetate]	about 48 ×10^14 radicals/mg	–	–	–
CC(=O)OC/C=C(C)/C=C/C=C(C)/C=C/C1=C(C)CCCC1(C)C [all-trans retinal acetate]	196 ×10^14 radicals/mg	–	–	–
CC1=C(/C=C/C(C)=C/C=C/C(C)=C/CO)C(C)(C)CCC1 [all-trans-retinole]	827 ×10^14 radicals/mg	–	–	–
superoxide dismutase [SOD]	–	4%	15%	38%
